Measured values taken from patent US20200289611A1, “Methods and Compositions for the Inhibition of Quorum Sensing in Bacterial Infections” (priority 2016, published 2020).
“Also recorded” adds a separate entry of the source.

Assays:
S. aureus LAC = assay: Bacterial growth (OD) in reporter time course; assay type: cell-based, Staphylococcus aureus
Protocol: Apicidin was tested for quorum quenching activity against all four agr types using P3-YFP reporter strains AH1677 (type I), AH430 (type II) AH1747 (type III), and AH1872 (type IV). (28) Overnight cultures of reporter strains that were grown in TSB supplemented with Cam were inoculated at a dilution of 1:250 into fresh TSB containing Cam. 100 μL, aliquots were added to 96-well microtiter plates containing 100 μL aliquots of TSB containing Cam and 2-fold serial dilutions of apicidin. Readings were recorded at 30 min increments using a Tecan Systems Infinite M200 plate reader.
Overnight cultures of agr strain types I, II, III, and IV were inoculated 1:500 into 5 ml of TSB (in 17×150 mm culture tubes) containing apicidin at concentrations of 100, 50, 25, 12.5, and 6.25 μg mL (28). All cultures were incubated at 37° C. with shaking (250 rpm), and growth was monitored by periodically transferring 100 μL of culture to a 96-well microtiter plate and reading OD600 in a Tecan Systems Infinite M200 plate reader. […] To quantify hemolytic activity, the filter sterilized culture supernatants from apicidin treated cultures were serially in TSB, and 50 μL aliquots were dispensed in quadruplicate into 96-well microtiter plates. […] Hemolysis was detected by the loss of turbidity as measured at OD630 using a Tecan Infinite M200 plate reader.

AgrA = target: T1, AgrA (Staphylococcus aureus, UniProt P0A0I7); assay: agr null agrP3 lux reporter with plasmid encoded AgrA; assay type: cell-based; conditions: agr null strain
T1 construct: expressed in transfected cells; host or cells: agr null S. aureus agrP3-lux reporter strain
Protocol: To investigate the mechanisms by which apicidin inhibits quorum sensing, a series of in vitro assays were conducted to systematically assess the relative contribution of each of the core genetic elements of the agrBDCA operon (FIG. 13A). The membrane embedded peptidase AgrB, is responsible for processing the AgrD pro-peptide (immature AIP) for extracellular release. To determine if apicidin inhibits agr signaling at the level of AIP signal generation, an established system was used whereby the agrBD genes (under sarA P1 promoter regulation), were integrated into an agr null strain derived from the USA300 isolate LAC (40). This construct enables alterations to AIP signal biosynthesis to be clearly delineated from regulation stemming from signal integration. […] Next, the possibility that apicidin interferes with the sensory activity of AIP receptor AgrC was explored. For this, a R235H construct bearing a point mutation that confers constitutive AgrC activity, and thereby enables phospho-activation of AgrA to occur independently of AIP binding, was employed. […] Next, it was determined if AgrA serves as the target of apicidin. To this end, an agr null reporter construct, whereby agrP3 lux activation can only be achieved through the constitutive production of plasmid encoded AgrA […], was employed. […]

MRSA transcriptome (LAC) = assay: RNA-seq of WT LAC cultures; assay type: cell-based, Staphylococcus aureus
Protocol: Cultures of LAC and LAC ? agr were grown in TSB with DMSO alone or 100 µM apicidin (diluted in neat DMSO). All four cultures were grown to optical density of 1.4 at 600 nm, and the RNA was purified. The samples were subjected to DNase treatment and sample was quality was affirmed via Bioanalyzer (Agilent). […] was depleted with a Ribo-Zero rRNA Removal Kit from gram positive bacteria (Illumina). cDNA libraries were generated at the University of Iowa Genomics Division using the TruSeq Stranded mRNA Library Prep kit (Illumina). Sample were barcoded, pooled and sequenced in a 100×100 pared end reads using HiSeq_FPR3757 genome sequence using SeqMan NGen (DNASTAR) and the alignment were analyzed using ArrayStar (DNASTAR).
To evaluate the impact of apicidin upon global transcriptional regulation RNA-seq analysis upon WT LAC cultures grown in the presence of apicidin or vehicle was conducted. For purposes of comparing the effects of apicidin upon the MRSA transcriptome with those resulting from agr deletion, parallel RNA seq-analysis of WT and Δagr preparations were performed. A four-fold cutoff as the threshold for differential gene expression was used, and apicidin altered the expression of thirty transcripts, with >50% of these representing prototypical agr targets such hla, RNAIII, psms, and spl genes (FIG. 10).

[1] = system: CXCL-2 and G-CSF in lesional tissue; assay: Cytokine measurements from tissue homogenates; assay type: in vivo, mice; conditions: lesional tissue one day after infection
Protocol: Biopsy punches (4 mm), obtained from the center of skin ulcerations 1 day after infection, were homogenized with in sterile RPMI with proteinase inhibitor cocktail. The supernatants from these preparations were incubated with a multiplex bead array for IL-1β, G-CSF, KC (CXCL1), and CXCL2. Data were collected on a Luminex 200 (Luminex, Austin, Tex., USA) and analyzed with […]

T1 sequence (P0A0I7 whole entry): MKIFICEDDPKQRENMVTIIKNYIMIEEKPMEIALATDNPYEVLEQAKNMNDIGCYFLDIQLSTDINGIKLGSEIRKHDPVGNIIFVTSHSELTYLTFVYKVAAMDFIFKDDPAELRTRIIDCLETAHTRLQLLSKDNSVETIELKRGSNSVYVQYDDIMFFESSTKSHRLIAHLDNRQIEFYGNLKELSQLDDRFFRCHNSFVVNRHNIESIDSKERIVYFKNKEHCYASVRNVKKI

CCC(=O)CCCCC[C@@H]1NC(=O)[C@H]2CCCCN2C(=O)[C@H](C(C)CC)NC(=O)[C@H](Cc2cn(OC)c3ccccc23)NC1=O (stereo partly shown) [apicidin]
growth inhibition / bactericidal effect (S. aureus LAC): non-bactericidal; also recorded: minimal growth inhibition
inhibition of AgrA-dependent agr-P3 reporter activation (AgrA): dose dependent inhibition of agr-P3 driven bioluminescence; also recorded: inhibited agr-P3 reporter activation
transcriptional signature (MRSA transcriptome (LAC)): narrowly focused upon the agr virulon; also recorded: largely confined to agr-regulated transcripts
number of transcripts with altered expression (MRSA transcriptome (LAC); 100 uM apicidin, four-fold cutoff): thirty
share of altered transcripts that are prototypical agr targets (MRSA transcriptome (LAC); four-fold cutoff): > 50%
production of CXCL-2 [1]: decrease
production of G-CSF [1]: decrease
